According to PubChem BioAssay (NCI):
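GI50 is the concentration that inhibits growth by half. At the TGI there is no net growth.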

Key:
Experiment in all cases: inhibition of tumour cell growth, NCI panel, 384-well format
[1] = system: SW-620 colon
[2] = system: TK-10 renal
[3] = system: UO-31 renal
[4] = system: UACC-62 melanoma
[5] = system: KM12 colon
[6] = system: T-47D breast
[7] = system: A549 NSCLC
[8] = system: SR leukemia
[9] = system: MALME-3M melanoma
[10] = system: MCF7 breast
[11] = system: SF-268 CNS
[12] = system: HCT-116 colon
[13] = system: OVCAR-8 ovarian
[14] = system: NCI-H23 lung
[15] = system: SK-MEL-2 melanoma
[16] = system: NCI-H322M lung
[17] = system: OVCAR-4 ovarian
[18] = system: PC-3 prostate
[19] = system: CAKI-1 renal
[20] = system: OVCAR-3 ovarian
[21] = system: SF-539 CNS
[22] = system: SK-OV-3 ovarian
[23] = system: SF-295 CNS
[24] = system: NCI-H460 NSCLC
[25] = system: ACHN renal
[26] = system: NCI-H226 lung
[27] = system: SNB-75 CNS
[28] = system: MDA-MB-435 melanoma
[29] = system: SNB-19 CNS
[30] = system: BT-549 breast
[31] = system: MDA-MB-468 breast
[32] = system: HOP-62 NSCLC
[33] = system: HL-60(TB) leukemia
[34] = system: IGROV1 ovarian
[35] = system: UACC-257 melanoma
[36] = system: M14 melanoma
[37] = system: HT29 colon
[38] = system: SK-MEL-28 melanoma
[39] = system: K-562 leukemia
[40] = system: HOP-92 NSCLC
[41] = system: HS 578T breast
[42] = system: MOLT-4 leukemia
[43] = system: U251 glioblastoma
[44] = system: SK-MEL-5 melanoma
[45] = system: RXF 393 renal
[46] = system: SN12C renal
[47] = system: HCT-15 colon
[48] = system: COLO 205 colon
[49] = system: NCI-H522 lung
[50] = system: OVCAR-5 ovarian
[51] = system: 786-0 renal
[52] = system: EKVX NSCLC
[53] = system: A498 renal
[54] = system: DU-145 prostate
[55] = system: MDA-MB-231 breast

Work on `COc1cc(F)c(F)c(Nc2ccc(I)cc2F)c1NS(=O)(=O)C1(CC(O)CO)CC1` (stereo not given) yielded a GI50 [1] of 15.6 µM, a TGI [1] of 41.3 µM and a GI50 [2] of 20.6 µM. It also gave a TGI [2] of 53.8 µM, a GI50 [3] of 13.4 µM and a TGI [3] of 32.2 µM. The GI50 [4] was 3.82 µM, the TGI [4] was 14 µM and the GI50 [5] was 16.1 µM. The TGI [5] was 30 µM, the GI50 [6] was 21.2 µM and the TGI [6] was 81.6 µM. For the same compound, the GI50 [7] was 20 µM, the TGI [7] was 55 µM and the GI50 [8] was 14.5 µM. It also gave a TGI [8] of 27.6 µM, a GI50 [9] of 2.12 µM and a TGI [9] of 6.94 µM. For the same compound, the GI50 [10] was 14.8 µM, the TGI [10] was 30.4 µM and the GI50 [11] was 19.7 µM. The TGI [11] was 39.5 µM, the GI50 [12] was 14.7 µM and the TGI [12] was 28.7 µM. The GI50 [13] was 23.1 µM, the TGI [13] was 58.3 µM and the GI50 [14] was 13.7 µM. The TGI [14] was 32.4 µM, the GI50 [15] was 12.9 µM and the TGI [15] was 25.6 µM. For the same compound, the GI50 [16] was 26 µM, the TGI [16] was 59.3 µM and the GI50 [17] was 19.8 µM. The TGI [17] was 70 µM, the GI50 [18] was 16.3 µM and the TGI [18] was 30.3 µM. It also gave a GI50 [19] of 16 µM, a TGI [19] of 70.1 µM and a GI50 [20] of 13.9 µM. It also gave a TGI [20] of 27.1 µM, a GI50 [21] of 15 µM and a TGI [21] of 29.5 µM. The GI50 [22] was 21.8 µM, the TGI [22] was 56.9 µM and the GI50 [23] was 16.1 µM. It also gave a TGI [23] of 30.4 µM, a GI50 [24] of 16.2 µM and a TGI [24] of 30.3 µM. For the same compound, the GI50 [25] was 17.1 µM, the TGI [25] was 33.9 µM and the GI50 [26] was 14.6 µM. It also gave a TGI [26] of 31.9 µM, a GI50 [27] of 15 µM and a TGI [27] of 31.4 µM. For the same compound, the GI50 [28] was 6.29 µM, the TGI [28] was 20.1 µM and the GI50 [29] was 22.3 µM. For the same compound, the TGI [29] was 62.9 µM, the GI50 [30] was 14.1 µM and the TGI [30] was 27.2 µM. For the same compound, the GI50 [31] was 13.8 µM, the TGI [31] was 32.6 µM and the GI50 [32] was 14.2 µM. It also gave a TGI [32] of 29.1 µM, a GI50 [33] of 6.51 µM and a TGI [33] of 19.4 µM. The GI50 [34] was 14.5 µM, the TGI [34] was 31.5 µM and the GI50 [35] was 4.81 µM. For the same compound, the TGI [35] was 18.1 µM, the GI50 [36] was 3.22 µM and the TGI [36] was 12.5 µM. The GI50 [37] was 10.4 µM, the TGI [37] was 22.5 µM and the GI50 [38] was 3.18 µM. The TGI [38] was 13.3 µM, the GI50 [39] was 14.3 µM and the TGI [39] was 27.7 µM. It also gave a GI50 [40] of 14.7 µM, a TGI [40] of 28.6 µM and a GI50 [41] of 14.8 µM. For the same compound, the TGI [41] was 28.1 µM, the GI50 [42] was 14.1 µM and the TGI [42] was 27.1 µM. It also gave a GI50 [43] of 16.6 µM, a TGI [43] of 34.3 µM and a GI50 [44] of 7.62 µM. For the same compound, the TGI [44] was 20.5 µM, the GI50 [45] was 13.4 µM and the TGI [45] was 26.9 µM. For the same compound, the GI50 [46] was 16.9 µM, the TGI [46] was 35.3 µM and the GI50 [47] was 20.5 µM. The TGI [47] was 48.9 µM, the GI50 [48] was 6.9 µM and the TGI [48] was 24.1 µM. It also gave a GI50 [49] of 15.4 µM, a TGI [49] of 29.4 µM and a GI50 [50] of 18.2 µM. The TGI [50] was 41 µM, the GI50 [51] was 16.9 µM and the TGI [51] was 31.7 µM. It also gave a GI50 [52] of 19.5 µM, a TGI [52] of 44.4 µM and a GI50 [53] of 16.1 µM. The TGI [53] was 31 µM, the GI50 [54] was 18.1 µM and the TGI [54] was 37.4 µM. For the same compound, the GI50 [55] was 13.9 µM and the TGI [55] was 36.3 µM.
